In ChEMBL document CHEMBL1142573, “Suaveolindole, a new mass-limited antibacterial indolosesquiterpene from Greenwayodendron suaveolens obtained via high-throughput natural products chemistry methods” (2005):
≈ marks a conversion by molar mass, not a printed value.

Legend:
Assay type in all cases: functional
[1] = system: Klebsiella pneumoniae; experiment: Antimicrobial activity against Klebsiella pneumoniae ATCC 10031
[2] = system: Staphylococcus aureus; experiment: Antimicrobial activity against Staphylococcus aureus ATTC 6538P
[3] = system: Enterococcus faecalis; experiment: Antimicrobial activity against vancomycin-resistant Enterococcus faecalis VRE ATCC 51575
[4] = system: Bacillus subtilis; experiment: Antimicrobial activity against Bacillus subtilis ATCC 43223
[5] = system: Staphylococcus aureus; experiment: Antimicrobial activity against methicillin-resistant Staphylococcus aureus ATTC 33591
[6] = system: Pseudomonas aeruginosa; experiment: Antimicrobial activity against Pseudomonas aeruginosa ATCC 9027

`CC(C)=C1CC[C@@H](C)[C@@](C)(Cc2c[nH]c3ccccc23)[C@@H]1CCC(=O)O` [SUAVEOLINDOLE] was tested, and the MIC [1] was > 128 µg/mL, the MIC [2] was 8 µg/mL (≈ 22.6 µM) and the MIC [3] was > 32 µg/mL. The MIC [4] was 4 µg/mL (≈ 11.3 µM), the MIC [5] was 8 µg/mL (≈ 22.6 µM) and the MIC [6] was > 128 µg/mL.
